Experimental data published in US10106817B2, “Compositions and methods of use thereof for identifying anti-viral agents” (priority 2013, dated 2018).
“Also recorded” adds a separate entry of the source.

Experiments:
Type in all cases: cell-based
[1] = system: MIEP-IE2-GFP cells (MIEP-IE2-IRES-GFP circuit, ARPE-19); test: Flow cytometry of GFP in negative-feedback MIEP-IE2-GFP cells; settings: different levels of activation by TSA treatment, 17 hours
Excerpt: (§1) Mathematica™ (Wolfram Research) was used for closed-loop analysis. Standard lentiviral cloning was used to create minimal MIE circuits (Dull et al., 1998). The minimal MIEP-IE2-GFP and MIEP-GFP circuits are driven by a full-length ˜2.5 kb MIE promoter-enhancer (MIEP) that spans the sequence from the MIEP modulator at the 5′ edge to the junction of IE exons 1 and 2. The MIEP was PCR-cloned from AD169 into pLEIGW (a gift from Thor Lemishka) in place of the EF1a promoter. This full-length MIEP drives an IE2-IRES-GFP or mCherry-IRES-GFP cassette. IE2 was cloned from pRSV-IE86 (a gift from Jay Nelson). ARPE-19 cells were infected and FACS sorted for GFP to create stably expressing cell lines. Cells were treated with TSA for 17 hours, and GFP expression was quantified by flow cytometry. Live cells were gated by forward-versus-side scattering on a FacsCalibur™ cytometer (BD Biosciences) and mean fluorescence intensity recorded. At least 20,000 live cells were recorded for each experiment and data was analyzed in FlowJo™ (Treestar Inc.).
Cell lines (ARPE-19 cells) expressing IE2-GFP from MIE promoter (MIEP) (referred to as “MIEP-IE2-GFP cells”) were tested, in comparison to a cell line expressing MIEP-GFP control (referred to as “MIEP-GFP control cells). MIEP-IE2-GFP cells and MIEP-GFP control cells were treated with 10 ng/ml TNF-α, 400 nM TSA, or 1 mM VPA in MIEP-IE2-GFP cells. […]

[2] = system: CMV IE2-YFP virus; test: Viral replication kinetics (titer), CMV IE2-YFP virus; settings: for replication fitness of the parent virus (toxicity of exposure alone): VPA or TSA exposure
Method: (§2) MRC5 fibroblasts and life-extended human foreskin fibroblasts (HFFs) (Bresnahan and Shenk, 2000) were maintained in Dulbecco's Modified Eagle's Medium (DMEM) supplemented with 10% fetal bovine serum (FBS) and 50 U/ml penicillin-streptomycin at 37° C. and 5% CO2 in a humidified incubator. ARPE-19 cells were maintained in a 1:1 mixture of DMEM/F-12 (Mediatech Inc.) with 10% FBS (HyClone) and 50 U/ml Penicillin-Streptomycin (Mediatech Inc.). Cells were pretreated in a final concentration of 1 mM VPA (Calbiochem).
(§3) Confluent MRC5 monolayers at ˜5×10^4 cells per well were infected at indicated MOIs using 0.45 μm pre-filtered virus inoculum stocks diluted in culture media. Inoculums were calculated based on plaque-assay titrations (Bolovan-Fritts and Wiedeman, 2001), shown as time point 0 in each figure. Inoculum was then removed and replaced with 1 mL fresh media. Infected wells were collected in triplicate at indicated time points and stored at −80° C. To measure replication, samples were thawed and prepared as a 10-fold serial-dilution series in culture media, analyzed by TCID50, then converted to PFU/ml. Error ranges were calculated by standard deviation.

[3] = system: cells expressing the mutant amplifier circuit MIEPΔcrs-IE2-IRES-GFP; settings: after 14 days of TSA treatment
Method: (§4) MIEPΔcrs-IE2-GFP was constructed by PCR cloning MIEPΔcrs from the CMV Δcrs IE2-YFP bacmid and inserted into MIEP-IE2-GFP. ARPE-19 cells were transduced with the MIEP-IE2-GFP and MIEPΔcrs-IE2-GFP vectors and FACS sorted for GFP. The transduced cell lines were allowed to recover for 24 hours before the percentage of GFP-expressing cells for each cell line was quantified. Live cells were gated by forward versus side scattering on a FacsCalibur cytometer. On the first day after recovery, 2,500 GFP events were recorded. Subsequently, at least 10,000 GFP events were recorded for each experiment and analyzed using FlowJo™. For genomic PCR, genomic DNA was purified using a NucleoSpin Tissue kit (Clontech).

[4] = system: IE2-YFP; test: Single-cell time-lapse fluorescence microscopy of IE2-YFP levels, CMV IE2-YFP virus; settings: pretreatment with activator vs untreated control
Method: as §2
Life-extended HFFs and PML knockdown HFFs (a gift from Roger Everett) were passed onto a 96-well glass-bottom plate (Thermo Fisher Scientific) and grown to confluency to hold cells in the G0. Cells were synchronously infected on ice for 30 mins at MOI=1 (infection with mutant was done at room temperature). Live cells were imaged using a 20× oil objective on a spinning-disk confocal microscope (Olympus DSU™) equipped with a 37° C., humidified, 5% CO2 live-cell chamber. Image collection began when YFP signal was first detected and frames were captured every 10 minutes for 16-24 hours using an exposure time between 200 and 800 msec. Single-cell tracking and segmentation were performed with custom-written code in MatLab™ (Mathworks) as previously described (Weinberger et al., 2008). Homo-FRET imaging was performed as previously described (Weinberger and Shenk, 2007).

[5] = system: cells expressing the wild-type accelerator circuit MIEP-IE2-IRES-GFP; test: Percentage of live cells by flow cytometry, wild-type accelerator circuit cells; settings: after 14 days of TSA treatment
Method: as §4

[6] = system: IE2; test: Quantitative Western blot of IE2 expression during CMV infection; settings: pre-treatment with activator vs untreated control
Method: as §2
MRC5s at ˜60% confluency were infected at MOI=1. To synchronize viral entry, adsorption was done at 4° C. for 30 min., cells washed once in PBS (Mediatech, Inc.), fresh media added, and cells placed at a 37° C. in a humidified CO2 incubator. Time points were collected every 1-2 hrs for 20-24 hrs as indicated. Sample collection, protein transfer, and blot preparation were as previously described (Bolovan-Fritts et al., 2004) and samples were loaded and separated on precast SDS PAGE 10% or 7.5% bisacrylamide gels (BioRad).
For quantitative IE2 detection, the 1° antibody MAB810 (Millipore) was used at 1:100 and 2° antibody 926-32212 (LI-COR™) was used at a dilution of 1:20,000. For normalization, anti-beta tubulin antibody 26-42211 (LI-COR™) used at a dilution of 1:2000 followed by 2′ antibody 926-68073 (LI-COR™) at a dilution of 1:20,000. Blots were scanned and quantified on a LI-COR™ Odyssey™ according to manufacturer's protocols.

[7] = system: MIEP-GFP control cells (MIEP-mCherry-IRES-GFP circuit, ARPE-19); test: Flow cytometry of GFP in non-feedback MIEP-GFP control cells; settings: for GFP median fluorescence intensity: 10 ng/ml TNF-α, 400 nM TSA, or 1 mM VPA
Excerpt: as §1
Cell lines (ARPE-19 cells) expressing IE2-GFP from MIE promoter (MIEP) (referred to as “MIEP-IE2-GFP cells”) were tested, in comparison to a cell line expressing MIEP-GFP control (referred to as “MIEP-GFP control cells). MIEP-IE2-GFP cells and MIEP-GFP control cells were treated with 10 ng/ml TNF-α, 400 nM TSA, or 1 mM VPA in MIEP-IE2-GFP cells. The data are depicted in FIG. 33.

[8] = system: low-passage clinical CMV isolate TB40-E; test: Viral replication (titer), clinical isolate TB40-E
Method: as §3

[9] = system: CMV Δcrs mutant virus; test: Replicative fitness of the CMV Δcrs mutant virus (PFU/ml); settings: 72-hour VPA treatment, PFU/ml on day 10 after infection at MOI=1
Method: The CMV GFP control virus (Yu et al., 2003) encodes an SV40 promoter-EGFP cassette. The CMV […] IE2-YFP virus was constructed from the CMV IE2-YFP background as described (Cuevas-Bennett and Shenk, 2008). Viral stocks were titered by TCID50 (Nevels et al., 2004). To verify the integrity of the CMV Δcrs IE2-YFP virus, a rescue virus, CMV ΔcrsREVERT IE2-YFP, was constructed by homologous recombination, whereby CMV Δcrs IE2-YFP BAC DNA (20 μg) and a ˜2.5 kb wild-type MIEP DNA fragment (2.5 μg) were co-transfected by electroporation into 10^6 MRC5 cells, and subjected to two rounds of plaque purification.
as §3

| Molecule | GFP steady-state level as a function of activation (closed-loop dose-response) [1] | replication fitness of the parent virus (toxicity of exposure alone) [2] | viability (percentage of live cells) [3] | rate of IE2 expression in single cells (time to steady-state) [4] | steady-state IE2 levels in single cells [4] | viability (percentage of live cells) [5] | IE2 protein levels (amplification) [6] | rate of IE2 expression (acceleration) [6] | GFP median fluorescence intensity [7] | GFP steady-state level as a function of activation (closed-loop dose-response) ([7]; different levels of activation by TSA treatment, 17 hours) | increase in viral replication compared to the untreated control ([2]; 72-hour VPA pre-treatment, after the first round of viral maturation (~96 hours), MOI=1) | increase in titer [8] | replication of the mutant amplifier virus [9] |
| --- | --- | --- | --- | --- | --- | --- | --- | --- | --- | --- | --- | --- | --- |
| CC(/C=C/C(=O)NO)=C\[C@@H](C)C(=O)c1ccc(N(C)C)cc1 [TSA, Trichostatin A] | saturation in steady-state level | neither activator reduces replication fitness | significantly decreased viability | significantly accelerates IE2 expression in single cells | does not amplify steady-state IE2 levels | little effect on viability | do not amplify IE2 protein levels | accelerate IE2 expression | significantly increased | linear increase in final level | – | – | – |
| CCCC(CCC)C(=O)O [VPA, Valproic Acid] | – | neither activator reduces replication fitness | – | significantly accelerates IE2 expression in single cells; also recorded: decreases time to steady-state | does not amplify steady-state IE2 levels; also recorded: without increasing steady-state IE2-YFP levels | – | do not amplify IE2 protein levels; also recorded: no amplification in IE2 levels | accelerate IE2 expression; also recorded: acceleration | significantly increased | – | approximately five | nine | Decreased replication |
| Tumor Necrosis Factor Alpha [TNF-α] | – | – | – | significantly accelerates IE2 expression in single cells | does not amplify steady-state IE2 levels | – | do not amplify IE2 protein levels | accelerate IE2 expression | significantly increased | – | – | – | – |
